Test results as given in ChEMBL document CHEMBL5029183 (J Med Chem, 2021).
Activity calls are given as the source filed them.

What was measured:
Mus musculus [1] = assay: Antinociceptive activity in Kunming mouse model assessed as increase in paw withdrawal latency at 10 micromol/kg, sc at 10 to 90 mins by radiant heat paw withdrawal assay; format: functional, organism-based; conditions: dose 10.0 µmol/kg, time 10-90 min
Mus musculus [2] = species: Mus musculus; assay: Antinociceptive tolerance in Kunming mouse pretreated with 3 times ED50 of compound for 2 hrs followed by challenge with second dose of compound by radiant heat paw withdrawal test; format: functional
[3] = Toxicity in icv dosed Kunming mouse assessed as inhibition of gastrointestinal transit by measuring charcoal distance travel by charcoal meal test; format: organism-based; conditions: in vivo, icv_or_intrathecal, dose 0.67-6.7 nmol
Mus musculus [4] = assay: Antiallodynic activity in icv dosed Kunming mouse model of spared nerve injury-induced neuropathic pain assessed as increase in paw withdrawal threshold measured upto 50 mins by von Frey test; format: functional, organism-based; conditions: dose 0.67-6.7 nmol, time min <=50
Mus musculus [5] = assay: Antiallodynic activity in Kunming mouse model of spared nerve injury-induced neuropathic pain assessed as increase in paw withdrawal threshold at 10 micromol/kg, sc by von Frey test; format: functional, organism-based; conditions: dose 10.0 µmol/kg
Mus musculus [6] = species: Mus musculus; assay: Antinociceptive tolerance in Kunming mouse pretreated with saline for 2 hrs followed by compound addition by radiant heat paw withdrawal test; format: functional
Ileum = assay: Inhibition of electric-field induced guinea pig ileum contraction; format: functional, tissue-based; conditions: Cavia porcellus
Mus musculus [7] = assay: Chronic antinociceptive tolerance in Kunming mouse assessed as maximum possible effect pretreated with compound followed by repeated compound addition at 20 nmol, icv once daily for 7 days and measured after 10 mins by radiant heat paw withdrawal test; format: functional; conditions: time 7 day
Mus musculus [8] = assay: Antinociceptive activity in Kunming mouse model assessed as increase in paw withdrawal latency at 0.67 to 20 nmol, icv by radiant heat paw withdrawal assay; format: functional, organism-based; conditions: dose 0.67-20 nmol, TDE = time-dependent effect
[9] = Toxicity in Kunming mouse model assessed as conditioned place preference time at 10 micromol/kg, sc; conditions: in vivo, dose 10 µmol/kg
Mus musculus [10] = assay: Antinociceptive tolerance in Kunming mouse pretreated with compound for 3 hrs followed by challenge with second dose of compound at 20 nmol, icv and measured after 2 to 2.5 hrs by radiant heat paw withdrawal test; format: functional, organism-based; conditions: time lower 5.0 hrs, time upper […]
[11] = Toxicity in Kunming mouse assessed as effect on motor coordination at 20 nmol, icv by rotarod test; conditions: in vivo, icv_or_intrathecal
[12] = Toxicity in Kunming mouse model assessed as conditioned place preference time at 20 nmol, icv; conditions: in vivo, icv_or_intrathecal
Mus musculus [13] = assay: Antinociceptive activity in Kunming mouse model assessed as increase in paw withdrawal latency at 10 micromol/kg, sc by radiant heat paw withdrawal assay; format: functional, organism-based; conditions: dose 10.0 µmol/kg
Mus musculus [14] = assay: Antiallodynic activity in Kunming mouse model of spared nerve injury-induced neuropathic pain assessed as increase in paw withdrawal threshold at 0.67 to 6.7 nmol, icv at 10 mins by von Frey test; format: functional, organism-based; conditions: dose 0.67-6.7 nmol
Mus musculus [15] = assay: Antiallodynic activity in icv dosed Kunming mouse model of CFA-induced inflammatory pain assessed as increase in ipsilateral withdrawal threshold measured upto 50 mins by von Frey test; format: functional, organism-based; conditions: dose 0.67-6.7 nmol, time min <=50
[16] = target: Kappa-type opioid receptor (Homo sapiens) (UniProt P41145); assay: Agonist activity at kappa-opioid receptor (unknown origin) expressed in HEK293 cells assessed as inhibition of forskolin-induced cAMP accumulation incubated for 15 mins by ELISA; format: functional, cell-based
Mus musculus [17] = assay: Antinociceptive tolerance in Kunming mouse pretreated with compound for 3 hrs followed by challenge with second dose of compound at 20 nmol, icv and measured after 1 to 1.5 hrs by radiant heat paw withdrawal test; format: functional, organism-based; conditions: time 4-4.5 hrs
Mus musculus [18] = assay: Chronic antinociceptive tolerance in Kunming mouse pretreated with compound followed by repeated compound addition at 20 nmol, icv once daily for 7 days and measured after 10 mins by radiant heat paw withdrawal test; format: functional, organism-based; conditions: time 7.0 day

Kappa-type opioid receptor (Homo sapiens), sequence (P41145 whole entry): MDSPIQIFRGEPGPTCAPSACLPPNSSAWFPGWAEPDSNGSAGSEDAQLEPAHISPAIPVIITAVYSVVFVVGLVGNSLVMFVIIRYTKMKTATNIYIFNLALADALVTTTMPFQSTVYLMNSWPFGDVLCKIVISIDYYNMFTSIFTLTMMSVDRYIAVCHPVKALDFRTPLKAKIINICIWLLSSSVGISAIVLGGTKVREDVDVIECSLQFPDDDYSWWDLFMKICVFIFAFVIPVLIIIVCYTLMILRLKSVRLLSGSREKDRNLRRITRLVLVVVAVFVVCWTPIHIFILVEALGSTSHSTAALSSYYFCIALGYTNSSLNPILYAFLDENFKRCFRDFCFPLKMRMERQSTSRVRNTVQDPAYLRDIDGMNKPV

Cc1cc(O)cc(C)c1C[C@H](N)C(=O)N[C@H]1CSSC[C@@H](C(=O)NCC(=O)N[C@H](CCCNC(=N)N)C(=O)N[C@H](CCCNC(=N)N)C(=O)O)NC(=O)[C@H](Cc2ccc(Cl)cc2)NC(=O)[C@H](Cc2ccccc2)NC1=O
Activity (Mus musculus [1]): Active
ED50 (Mus musculus [2]): 3.5 nmol
Activity [3]: Dose-Dependent Effect
Activity (Mus musculus [4]): Dose-Dependent Effect
Activity (Mus musculus [5]): Active
ED50 (Mus musculus [6]): 2.3 nmol
IC50 (Ileum): 11.8 nM
MPE (Mus musculus [7]): 77.25%
Activity (Mus musculus [8]): Tde
Time [9]: 453 s
Activity (Mus musculus [10]): Active
Activity [11]: Non-Toxic
Time [12]: 450 s
Activity (Mus musculus [13]): Active
Activity (Mus musculus [14]): Active
Activity (Mus musculus [15]): Dose-Dependent Effect
Activity [16]: inactive
Activity (Mus musculus [17]): inactive

Cc1cc(O)cc(C)c1C[C@H](N)C(=O)N[C@H]1CSSC[C@@H](C(=O)NCC(=O)N[C@H](CCCNC(=N)N)C(=O)N[C@H](CCCNC(=N)N)C(=O)O)NC(=O)[C@H](Cc2ccc(Cl)cc2)NC(=O)[C@H](Cc2c[nH]c3ccccc23)NC1=O
Activity (Mus musculus [1]): Active
ED50 (Mus musculus [2]): 2.7 nmol
Activity [3]: Dose-Dependent Effect
Activity (Mus musculus [4]): Dose-Dependent Effect
Activity (Mus musculus [5]): Active
ED50 (Mus musculus [6]): 2.2 nmol
IC50 (Ileum): 9.21 nM
Activity (Mus musculus [8]): Tde
Time [9]: 453 s
Activity (Mus musculus [10]): Active
Activity (Mus musculus [18]): inactive
Activity [11]: Non-Toxic
Time [12]: 447 s
Activity (Mus musculus [13]): Active
Activity (Mus musculus [14]): Active
Activity (Mus musculus [15]): Dose-Dependent Effect
Activity [16]: inactive
Activity (Mus musculus [17]): inactive
